This passage reports IC50 results from patent US20150291514A1, “N-Aminosulfonyl Benzamides” (Pfizer Limited, priority 2012, published 2015).

Each structure is given as a SMILES string. Structures can show the parent of a compound that is named as a salt.

T1 sequence (Q15858 whole entry): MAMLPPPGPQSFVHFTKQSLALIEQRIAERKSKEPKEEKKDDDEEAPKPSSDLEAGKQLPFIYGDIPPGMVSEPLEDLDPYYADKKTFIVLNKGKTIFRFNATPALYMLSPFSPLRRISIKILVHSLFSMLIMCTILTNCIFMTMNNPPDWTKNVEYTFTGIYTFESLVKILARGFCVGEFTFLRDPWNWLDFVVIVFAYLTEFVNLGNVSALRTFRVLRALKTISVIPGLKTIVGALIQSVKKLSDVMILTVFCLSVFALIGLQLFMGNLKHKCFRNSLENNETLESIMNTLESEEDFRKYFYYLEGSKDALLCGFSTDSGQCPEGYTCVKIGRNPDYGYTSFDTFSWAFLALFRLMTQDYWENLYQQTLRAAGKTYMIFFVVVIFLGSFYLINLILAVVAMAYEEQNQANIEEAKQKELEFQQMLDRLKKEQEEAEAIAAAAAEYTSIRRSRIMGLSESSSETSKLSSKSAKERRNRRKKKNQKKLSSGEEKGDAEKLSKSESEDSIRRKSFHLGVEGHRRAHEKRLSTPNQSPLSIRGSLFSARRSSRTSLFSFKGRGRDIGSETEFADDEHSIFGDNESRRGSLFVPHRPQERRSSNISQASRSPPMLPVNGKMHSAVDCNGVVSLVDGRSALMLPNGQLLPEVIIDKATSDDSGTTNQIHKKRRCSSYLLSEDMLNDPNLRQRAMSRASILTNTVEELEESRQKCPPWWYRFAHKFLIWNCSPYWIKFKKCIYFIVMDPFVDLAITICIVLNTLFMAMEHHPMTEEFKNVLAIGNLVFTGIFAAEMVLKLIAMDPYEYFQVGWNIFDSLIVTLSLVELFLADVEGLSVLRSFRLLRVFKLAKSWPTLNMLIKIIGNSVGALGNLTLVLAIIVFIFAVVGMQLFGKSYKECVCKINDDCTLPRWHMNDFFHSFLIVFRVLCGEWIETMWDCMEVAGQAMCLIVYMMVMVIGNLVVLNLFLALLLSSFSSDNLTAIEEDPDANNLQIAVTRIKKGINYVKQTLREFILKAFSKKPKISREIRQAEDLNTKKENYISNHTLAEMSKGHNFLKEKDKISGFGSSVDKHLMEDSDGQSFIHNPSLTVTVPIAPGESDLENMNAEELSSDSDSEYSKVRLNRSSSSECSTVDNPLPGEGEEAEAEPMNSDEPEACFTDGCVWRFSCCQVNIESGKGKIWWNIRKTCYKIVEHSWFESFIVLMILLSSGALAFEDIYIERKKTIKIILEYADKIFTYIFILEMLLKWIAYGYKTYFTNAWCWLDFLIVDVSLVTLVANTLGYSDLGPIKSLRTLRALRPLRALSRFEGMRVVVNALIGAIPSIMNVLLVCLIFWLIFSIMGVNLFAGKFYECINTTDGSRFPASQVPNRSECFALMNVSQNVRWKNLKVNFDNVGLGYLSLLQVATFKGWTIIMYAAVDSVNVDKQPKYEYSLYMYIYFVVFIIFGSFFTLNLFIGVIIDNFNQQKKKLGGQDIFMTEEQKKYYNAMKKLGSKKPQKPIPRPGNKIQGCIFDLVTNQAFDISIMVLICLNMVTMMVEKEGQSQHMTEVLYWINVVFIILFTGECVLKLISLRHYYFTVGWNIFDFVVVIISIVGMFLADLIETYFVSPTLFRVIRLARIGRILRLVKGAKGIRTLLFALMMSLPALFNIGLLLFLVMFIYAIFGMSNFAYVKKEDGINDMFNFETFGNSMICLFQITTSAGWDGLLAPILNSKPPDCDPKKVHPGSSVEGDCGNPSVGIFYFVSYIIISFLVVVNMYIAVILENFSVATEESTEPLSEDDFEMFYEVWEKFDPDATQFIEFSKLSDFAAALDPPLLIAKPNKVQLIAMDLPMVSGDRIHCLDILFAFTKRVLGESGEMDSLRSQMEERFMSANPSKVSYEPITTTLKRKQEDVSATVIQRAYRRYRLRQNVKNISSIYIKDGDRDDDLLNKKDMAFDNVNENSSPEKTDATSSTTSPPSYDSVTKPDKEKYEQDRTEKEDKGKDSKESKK

The assay has as its target T1, Nav1.7 (or SCN9A) channel (Homo sapiens, UniProt Q15858).
T1 construct: expressed in transfected cells
Nature of the assay: Nav1.7 (hSCN9A) PatchXpress electrophysiology assay. The class given is cell-based. The conditions noted are these: estimated IC50 from single point electrophysiology data; PatchXpress platform; HEK cells expressing hSCN9A, held at V1/2 of inactivation; read-out: Nav1.7 EIC50. As to the method:
The ability of the compounds of formula (I) to block the Nav1.7 (or SCN9A) channel were measured using the assay described below.
Human Embryonic Kidney (HEK) cells were transfected with an hSCN9A construct using lipofectamine reagent (Invitrogen), using standard techniques. Cells stably expressing the hSCN9A constructs were identified by their resistance to G-418 (400 μg/ml). Clones were screened for expression using the whole-cell voltage-clamp technique.
HEK cells stably transfected with hSCN9A were maintained in DMEM medium supplemented with 10% heat-inactivated fetal bovine serum and 400 μg/ml G-418 in an incubator at 37° C. with a humidified atmosphere of 10% CO2. For HTS, cells were harvested from flasks by trypsinization and replated in an appropriate multi-well plate (typically 96 or 384 wells/plate) such that confluence would be achieved within 24 hours of plating. For electrophysiological studies, cells were removed from the culture flask by brief trypsinization and re-plated at low density onto glass cover slips. Cells were typically used for electrophysiological experiments within 24 to 72 hours after plating.
Cover slips containing HEK cells expressing hSCN9A were placed in a bath on the stage of an inverted microscope and perfused (approximately 1 ml/minutes) with extracellular solution of the following composition: 138 mM NaCl, 2 mM CaCl2, 5.4 mM KCl, 1mM MgCl2, 10 mM glucose, and 10 mM HEPES, pH 7.4, with NaOH. […] The osmolarity of the extracellular and intracellular solutions was 300 mOsm/kg and 295 mOsm/kg, respectively. All recordings were made at room temperature (22-24° C.) using AXOPATCH 200B amplifiers and PCLAMP software (Axon Instruments, Burlingame, Calif.).
hSCN9A currents in HEK cells were measured using the whole-cell configuration of the patch-clamp technique (Hamill et al., 1981). Uncompensated series resistance was typically 2 to 5 mega ohms and >85% series resistance compensation was routinely achieved. As a result, voltage errors were negligible and no correction was applied. Current records were acquired at 20 to 50 KHz and filtered at 5 to 10 KHz.
HEK cells stably transfected with hSCN9A were viewed under Hoffman contrast optics and placed in front of an array of flow pipes emitting either control or compound-containing extracellular solutions. All compounds were dissolved in dimethyl sulfoxide to make 10 mM stock solutions, which were then diluted into extracellular solution to attain the final concentrations desired. […] The voltage-dependence of inactivation was determined by applying a series of depolarizing prepulses (8 sec long in 10 mV increments) from a negative holding potential. The voltage was then immediately stepped to 0 mV to assess the magnitude of the sodium current. Currents elicited at 0 mV were plotted as a function of prepulse potential to allow estimation of the voltage at which 50% of the channels were inactivated (midpoint of inactivation or V1/2). Compounds were tested for their ability to inhibit hSCN9A sodium channels by activating the channel with a 20 msec voltage step to 0 mV following an 8 second conditioning prepulse to the empirically determined V1/2. Compound effect (% inhibition) was determined by difference in current amplitude before and after application of test compounds. For ease of comparison, “estimated IC-50” (EIC50) values were calculated from single point electrophysiology data by the following equation, (tested concentration, uM)×(100-% inhibition/% inhibition). Inhibition values <20% and >80% were excluded from the calculation.
Electrophysiological assays were conducted with PatchXpress 7000 hardware and associated software (Molecular Devices Corp). All assay buffers and solutions were identical to those used in conventional whole-cell voltage clamp experiments described above. hSCN9A cells were grown as above to 50%-80% confluency and harvested by trypsinization. […]
Consider `C[C@@H]1CCCN1c1ncc(Oc2cc(F)c(C(=O)NS(=O)(=O)N(C)C)cc2F)cc1Cl` [Example 29, 4-({5-chloro-6-[(2R)-2-methylpyrrolidin-1-yl]pyridine-3-yl}oxy)-N-[(dimethylamino)sulfonyl]-2,5-dfluorobenzamide formate salt], for which the IC50 was 240 nM.
With `CC(C)Oc1ncc(Oc2cc(F)c(C(=O)NS(=O)(=O)N(C)C)cc2F)cc1Cl` [Example 30, 4-[(5-chloro-6-isopropoxypyridin-3-yl)oxy]-N-[(dimethylamino)sulfonyl]-2,5-difluorobenzamide], the IC50 is 470 nM.
Turning to `CNS(=O)(=O)NC(=O)c1cc(F)c(Oc2cnc(OC(C)C)c(Cl)c2)cc1F` [Example 31, 4-[(5-chloro-6-isopropoxypyridin-3-yl)oxy]-N-[(methylamino)sulfonyl]-2,5-difluorobenzamide], the IC50 was 6600 nM.
As to `CN(C)S(=O)(=O)NC(=O)c1cc(F)c(Oc2cnc(OCC3CC3)c(Cl)c2)cc1F` [Example 32, 4-[(5-chloro-6-(cyclopropylmethoxy)pyridin-3-yl)oxy]-N-[(dimethylamino)sulfonyl]-2,5-difluorobenzamide], the IC50 is 290 nM.
As to `CN(C)S(=O)(=O)NC(=O)c1cc(F)c(Oc2cnc(OCC(C)(C)F)c(Cl)c2)cc1F` [Example 33, 4-[(5-chloro-6-(2-fluoro-2-methylpropoxy)pyridin-3-yl)oxy]-N-[(dimethylamino)sulfonyl]-2,5-difluorobenzamide diethylamine salt], the IC50 is 500 nM.
As to `CN(C)S(=O)(=O)NC(=O)c1cc(F)c(Oc2cnc(OCC(F)(F)F)c(Cl)c2)cc1F` [Example 34, 4-[(5-chloro-6-(2,2,2-trifluoroethoxy)pyridin-3-yl)oxy]-N-[(dimethylamino)sulfonyl]-2,5-difluorobenzamide diethylamine salt], the IC50 is 590 nM.
Turning to `CN(C)S(=O)(=O)NC(=O)c1cc(F)c(Oc2cc(C(F)(F)F)c(Cl)cn2)cc1F` [Example 35, 4-((5-chloro-4-(trifluoromethyl)pyridin-2-yl)oxy)-N-(N,N-dimethylsulfamoyl)-2,5-difluorobenzamide], the IC50 is 2500 nM.
For the compound `CC(Oc1ncc(Oc2cc(F)c(C(=O)NS(=O)(=O)N(C)C)cc2F)cc1Cl)C(F)(F)F` (stereo not drawn) [Example 36, 4-((5-chloro-6-((1,1,1-trifluoropropan-2-yl)oxy)pyridin-3-yl)oxy)-N-[(dimethylamino)sulfonyl]-2,5-difluorobenzamide], the IC50 is 660 nM.
In the case of `CN(C)S(=O)(=O)NC(=O)c1cc(F)c(Oc2cnc(OC(C(F)(F)F)C(F)(F)F)c(Cl)c2)cc1F` [Example 37], the IC50 was 470 nM.
Take `CC(C)Oc1ncc(Oc2cc(F)c(C(=O)NS(=O)(=O)N3CCC3)cc2F)cc1Cl` [Example 38, N-(azetidin-1-ylsulfonyl)-4-(5-chloro-6-isopropoxypyridin-3-yl)oxy)-2,5-difluorobenzamide diethylamine salt]: the IC50 is 180 nM.
Take `O=C(NS(=O)(=O)N1CCC1)c1cc(Cl)c(Oc2cnc(OCC(F)(F)C(F)F)c(Cl)c2)cc1F` [Example 41, N-(azetidin-1-ylsulfonyl)-5-chloro-4-{[5-chloro-6-(2,2,3,3-tetrafluoropropoxy)pyridin-3-yl]oxy}-2-fluorobenzamide]: the IC50 was 100 nM.
Regarding `O=C(NS(=O)(=O)N1CCC1)c1cc(Cl)c(Oc2ccc(Cl)c(Cl)c2)cc1F` [Example 42, N-(azetidin-1-ylsulfonyl)-5-chloro-4-(3,4-dichlorophenoxy)-2-fluorobenzamide], the IC50 was 100 nM.
